Source: ChEMBL document CHEMBL5233251, “Epoxide containing molecules: A good or a bad drug design approach” (Eur J Med Chem, 2020)
Converted amounts (≈) assume the structure as drawn.

What was measured:
MCF7 [1] = experiment: Antiproliferative activity against human MCF7 cells assessed as reduction in cell viability incubated for 48 hrs by CytoX cell viability assay; assay type: functional, cell-based; details: MCF7, 48 h
HeLa [2] = experiment: Antiproliferative activity against human HeLa cells assessed as reduction in cell viability incubated for 48 hrs by CytoX cell viability assay; assay type: functional, cell-based
DU-145 = experiment: Antiproliferative activity against human DU-145 cells assessed as reduction in cell viability incubated for 48 hrs by CytoX cell viability assay; assay type: functional, cell-based; details: DU-145, 48 h
HCT-15 = experiment: Antiproliferative activity against human HCT-15 cells assessed as reduction in cell viability incubated for 48 hrs by CytoX cell viability assay; assay type: functional, cell-based; details: HCT-15, 48 h
K562 [3] = experiment: Antiproliferative activity against human K562 cells assessed as reduction in cell viability incubated for 48 hrs by CytoX cell viability assay; assay type: functional, cell-based; details: K562, 48 h
NCI-H522 = experiment: Cytotoxicity against human NCI-H522 cells assessed as inhibition of cell growth incubated for 3 days; assay type: functional, cell-based; details: NCI-H522, 72 h
[4] = Cytotoxicity against human RPMI-8226/Dox40 cells assessed as inhibition of cell growth incubated for 3 days; assay type: functional, cell-based; details: RPMI-8226, 72 h
Plasmodium falciparum [5] = experiment: Antimalarial activity against chloroquine-sensitive Plasmodium falciparum D10 incubated for 48 hrs; assay type: functional, organism-based; details: D10, 48 h
Plasmodium falciparum [6] = experiment: Antimalarial activity against […] incubated for 48 hrs; assay type: functional, organism-based; details: K1, 48 h
Plasmodium falciparum [7] = experiment: Antimalarial activity against Sulfadoxine-sensitive Plasmodium falciparum FCR3; assay type: functional, organism-based
Plasmodium falciparum [8] = experiment: Antimalarial activity against Sulfadoxine-sensitive Plasmodium falciparum HB3; assay type: functional, organism-based
Plasmodium falciparum [9] = experiment: Antimalarial activity against Sulfadoxine-sensitive Plasmodium falciparum D6; assay type: functional, organism-based
Plasmodium falciparum [10] = experiment: Antimalarial activity against Sulfadoxine-resistant Plasmodium falciparum W2; assay type: functional, organism-based
Plasmodium falciparum [11] = experiment: Antimalarial activity against Sulfadoxine-resistant Plasmodium falciparum 3D7; assay type: functional, organism-based
HEp-2 = experiment: Cytotoxicity against human HEp-2 cells assessed as inhibition of cell growth; assay type: functional; details: read-out: ED50 (the source's name)
[12] = Induction of apoptosis in human multiple myeloma cell; assay type: functional, cell-based
Hyalomma lusitanicum = experiment: Anti-insecticidal activity against Hyalomma lusitanicum Koch larvae assessed as inhibition of larval growth; assay type: functional; details: for LC50: Hyalomma lusitanicum, read-out: LD50 (the source's name)
HCT-116 = experiment: Antiproliferative activity against human HCT-116 cells assessed as inhibition of cell growth incubated for 72 hrs by MTT assay; assay type: functional, cell-based; details: HCT-116, 72 h
OVCAR-8 = experiment: Antiproliferative activity against human OVCAR-8 cells assessed as inhibition of cell growth incubated for 72 hrs by MTT assay; assay type: functional, cell-based; details: OVCAR-8, 72 h
SF-295 = experiment: Antiproliferative activity against human SF-295 cells assessed as inhibition of cell growth incubated for 72 hrs by MTT assay; assay type: functional, cell-based; details: SF-295, 72 h
HL-60 = experiment: Antiproliferative activity against human HL-60 cells assessed as inhibition of cell growth incubated for 72 hrs by MTT assay; assay type: functional, cell-based; details: HL-60, 72 h
Leishmania donovani = experiment: Antileishmanial activity against Leishmania donovani promastigotes; assay type: functional, organism-based
A2780 = experiment: Antiproliferative activity against human A2780 cells assessed as inhibition of cell proliferation incubated for 4 days by MTT assay; assay type: functional, cell-based; details: A2780, 96 h
Malme-3M = experiment: Antiproliferative activity against human Malme-3M cells assessed as inhibition of cell proliferation incubated for 4 days by MTT assay; assay type: functional, cell-based; details: 96 h
MCF7 [13] = experiment: Antiproliferative activity against human MCF7 cells assessed as inhibition of cell proliferation incubated for 4 days by MTT assay; assay type: functional, cell-based; details: MCF7, 96 h
HT-29 = experiment: Antiproliferative activity against human HT-29 cells assessed as inhibition of cell proliferation incubated for 4 days by MTT assay; assay type: functional, cell-based; details: HT-29, 96 h
HeLa [14] = experiment: Antiproliferative activity against human HeLa cells assessed as inhibition of cell proliferation incubated for 4 days by MTT assay; assay type: functional, cell-based; details: 96 h
NCI-H1299 = experiment: Antiproliferative activity against human NCI-H1299 cells assessed as inhibition of cell proliferation incubated for 4 days by MTT assay; assay type: functional, cell-based; details: NCI-H1299, 96 h
K562 [15] = experiment: Antiproliferative activity against human K562/C1000 cells assessed as inhibition of cell proliferation incubated for 4 days by MTT assay; assay type: functional, cell-based; details: K562, 96 h
Aromatase [16] = biological target: T1, Aromatase (Homo sapiens, UniProt P11511); experiment: Inhibition of aromatase in human MCF-7aro cells using [1beta-3H] androstenedione as substrate at 10 uM incubated for 1 hrs relative to control; assay type: cell-based
T1 sequence (P11511 whole entry): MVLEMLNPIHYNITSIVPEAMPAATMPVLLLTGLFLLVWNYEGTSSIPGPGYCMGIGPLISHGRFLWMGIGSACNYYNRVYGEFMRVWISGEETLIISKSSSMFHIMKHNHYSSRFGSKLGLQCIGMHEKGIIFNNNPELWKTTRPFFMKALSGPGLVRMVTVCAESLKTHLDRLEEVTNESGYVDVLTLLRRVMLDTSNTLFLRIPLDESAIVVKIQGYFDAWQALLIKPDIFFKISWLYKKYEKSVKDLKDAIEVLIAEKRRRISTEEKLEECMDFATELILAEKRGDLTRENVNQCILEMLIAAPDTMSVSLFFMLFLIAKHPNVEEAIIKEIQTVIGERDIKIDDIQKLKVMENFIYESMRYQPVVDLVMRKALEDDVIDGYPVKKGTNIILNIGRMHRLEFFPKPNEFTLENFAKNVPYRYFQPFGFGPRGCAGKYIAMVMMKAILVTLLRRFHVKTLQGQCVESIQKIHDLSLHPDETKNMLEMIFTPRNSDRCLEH

Aromatase [17] = biological target: T1, Aromatase; experiment: Inhibition of aromatase in human MCF-7aro cells using [1beta-3H] androstenedione as substrate incubated for 1 hrs; assay type: cell-based
Aromatase [18] = biological target: T1, Aromatase; experiment: Inhibition of aromatase in disrupted human MCF-7aro cells using [1beta-3H] androstenedione as substrate incubated for 1 hrs in the presence of NADPH
PC-3 = experiment: Cytotoxicity against human PC-3 cells assessed as inhibition of cell growth incubated for 48 hrs by SRB assay; assay type: functional, cell-based; details: PC-3, 48 h
MCF7 [19] = experiment: Cytotoxicity against human MCF7 cells assessed as inhibition of cell growth incubated for 48 hrs by SRB assay; assay type: functional, cell-based; details: MCF7, 48 h
MDA-MB-231 = experiment: Cytotoxicity against human MDA-MB-231 cells assessed as inhibition of cell growth incubated for 48 hrs by SRB assay; assay type: functional, cell-based; details: MDA-MB-231, 48 h

## Cc1cc(=O)c2c(O)cc(OCC3CO3)cc2o1 (centres undefined)
MCF7 [1]
  IC50: 13.6 µM
HeLa [2]
  IC50: 17.7 µM
DU-145
  IC50: 20.9 µM
HCT-15
  IC50: 18.3 µM
K562 [3]
  IC50: 143 µM

## C[C@]1([C@H]2Cc3ccc4c(c3O2)-n2cc(C(=O)O)c(=O)c3cc(F)c(N5CC[C@H](N)C5)c(c32)O4)CO1
NCI-H522
  IC50: 0.07 µM
[4]
  IC50: 0.05 µM

## CC(C)[C@@]12CC[C@@](C)(OO1)[C@@H]1O[C@@H]12
Plasmodium falciparum [5]
  IC50: 0.08 µM
Plasmodium falciparum [6]
  IC50: 0.08 µM
Plasmodium falciparum [7]
  IC50: 0.01 µM
Plasmodium falciparum [8]
  IC50: 0.01 µM
Plasmodium falciparum [9]
  IC50: 0.01 µM
Plasmodium falciparum [10]
  IC50: > 10 µM
Plasmodium falciparum [11]
  IC50: > 10 µM

## C[C@@H]1C[C@H]2OC(=O)[C@@H](C)[C@H]2[C@H](O)[C@]2(C)C(=O)C3OC3[C@@H]12 (some centres undefined)
HEp-2
  EC50: 0.11 µg/mL (≈ 0.392 µM)

## Cc1cc(=O)c2c(OC[C@@H]3CO3)cc(OC[C@@H]3CO3)cc2o1
MCF7 [1]
  IC50: 46.1 µM
HeLa [2]
  IC50: 21.7 µM
DU-145
  IC50: 24.5 µM
HCT-15
  IC50: 39.5 µM
K562 [3]
  IC50: 19.5 µM

## COc1ccc2c(c1)C(=O)C1OC1(C)C2=O (centres undefined)
[12]
  EC50: 3.5 µM

## Cc1cccc([C@]23CC[C@](c4cccc(C)c4)(OO2)[C@H]2O[C@H]23)c1
Plasmodium falciparum [5]
  IC50: 0.08 µM
Plasmodium falciparum [6]
  IC50: 0.08 µM
Plasmodium falciparum [7]
  IC50: 0.01 µM
Plasmodium falciparum [8]
  IC50: 0.01 µM
Plasmodium falciparum [9]
  IC50: 0.01 µM
Plasmodium falciparum [10]
  IC50: > 10 µM
Plasmodium falciparum [11]
  IC50: > 10 µM

## CC1=C2CC3(OC3(C)C)C(=O)C[C@@]2(C)CCC1 (some centres undefined)
Hyalomma lusitanicum
  LD90: 6.33 mg/mL
  LC50: 4140 µg/mL (≈ 17700 µM)

## Fc1ccc([C@]23CC[C@](c4ccc(F)cc4)(OO2)[C@H]2O[C@H]23)cc1
Plasmodium falciparum [5]
  IC50: 0.08 µM
Plasmodium falciparum [6]
  IC50: 0.08 µM
Plasmodium falciparum [7]
  IC50: 0.01 µM
Plasmodium falciparum [8]
  IC50: 0.01 µM
Plasmodium falciparum [9]
  IC50: 0.01 µM
Plasmodium falciparum [10]
  IC50: > 10 µM
Plasmodium falciparum [11]
  IC50: > 10 µM

## C=C(C)[C@H]1CCC2(C=O)OC2C1 (some centres undefined)
HCT-116
  IC50: 16.1 µM
OVCAR-8
  IC50: 23.6 µM
SF-295
  IC50: 22 µM
HL-60
  IC50: 9.7 µM
Leishmania donovani
  IC50: 64.6 µg/mL (≈ 389 µM)

## Cc1cc(=O)c2c(OC[C@@H]3CO3)cc(OC[C@H]3CO3)cc2o1
MCF7 [1]
  IC50: 13.9 µM
HeLa [2]
  IC50: 11 µM
DU-145
  IC50: 20.4 µM
HCT-15
  IC50: 12.1 µM
K562 [3]
  IC50: 1.49 µM

## C/C1=C\CC2(OC2(C)C)C(=O)C/C(C)=C/CC1 (centres undefined)
Hyalomma lusitanicum
  LD90: 2.43 mg/mL
  LC50: 1210 µg/mL (≈ 5160 µM)

## Cc1cc(=O)c2c(O)cc(OC[C@H]3CO3)cc2o1
MCF7 [1]
  IC50: 22.9 µM
HeLa [2]
  IC50: 16.7 µM
DU-145
  IC50: 15.2 µM
HCT-15
  IC50: 27.2 µM
K562 [3]
  IC50: 9.74 µM

## CC1(C)NC(=O)[C@@H](CCCCCC(=O)[C@@H]2CO2)NC(=O)CC2CCCN2C(=O)[C@@H](Cc2ccccc2)NC1=O (some centres undefined)
A2780
  IC50: 0.00036 µM
Malme-3M
  IC50: 0.045 µM
MCF7 [13]
  IC50: 0.0053 µM
HT-29
  IC50: 0.0043 µM
HeLa [14]
  IC50: 0.014 µM
NCI-H1299
  IC50: 0.004 µM
K562 [15]
  IC50: 0.00076 µM

## C[C@@H]1C[C@H]2OC(=O)C(CN(C)C)[C@H]2[C@H](O)[C@]2(C)C(=O)C3OC3[C@@H]12 (some centres undefined)
HEp-2
  EC50: 0.11 µg/mL (≈ 0.34 µM)

## C=C1C(=O)O[C@@H]2C[C@@H](C)[C@]34O[C@H]3CC(=O)[C@@]4(C)[C@@H](O)[C@H]12
HEp-2
  EC50: 0.11 µg/mL (≈ 0.395 µM)

## Cc1cc(=O)c2c(O)cc(OC[C@@H]3CO3)cc2o1
MCF7 [1]
  IC50: 36.2 µM
HeLa [2]
  IC50: 11.9 µM
DU-145
  IC50: 7.58 µM
HCT-15
  IC50: 17.5 µM
K562 [3]
  IC50: 8.03 µM

## C[C@]12CC[C@H]3[C@@H](CC[C@@]45O[C@@H]4CCC[C@]35C)[C@@H]1CCC2=O
Aromatase [16]
  inhibition at 10 µM: 52.2%
Aromatase [17]
  IC50: 8.5 µM
Aromatase [18]
  IC50: 1.2 µM

## C[C@]12CC[C@H]3[C@@H](C=CC4=CC(=O)[C@@H]5O[C@@H]5[C@@]43C)[C@@H]1CC(=O)OC2
PC-3
  IC50: > 100 µM
MCF7 [19]
  IC50: > 100 µM
MDA-MB-231
  IC50: 16.4 µM
